According to patent US12697325B2 (TENNOR THERAPEUTICS (SUZHOU) LIMITED, priority 2021, dated 2026):
Like-named read-outs stand apart in the source and are kept apart here.

Key:
[1] = Stability of sulbactam sodium and avibactam sodium in different pH buffers (HPLC purity); format: physicochemical; details: 20° C., 24 h; for Purity in pH buffer (monomer): purity 100% at 0 h, alone; for Purity in pH buffer (in mixture): mixture 4:1 (sulbactam sodium 1 mg/mL, avibactam sodium 0.25 mg/mL)
[2] = cited from earlier work
[3] = 0.5 g, q8 h via infusion for 2 h; cited from earlier work
[4] = Pharmacokinetics in plasma and bronchoalveolar lavage fluid of female CD-1 mice; format: in vivo; details: female, CD-1, mouse
Method: An appropriate amount of the test drug was accurately weighed and mixed with the appropriate volume of vehicle (5% DMSO+0.5% Tween 80 in normal saline) to obtain a clear solution for the test in Table 9. The formulation solution for injection was prepared to sterile filtration through a 0.22 μm filter prior to administration. The mice were dosed with the drug within 30 min after the formulated solution for injection was prepared. A 1.5 mL of the formulation solution for injection was transferred into a polypropylene microcentrifuge tube for dose verification by LC/UV or LC-MS/MS.
All blood samples were transferred to pre-frozen EDTA-K2 tubes and placed on wet ice until centrifugation. […]
Plasma: approximately 100 μL of blood sample was transferred into pre-cooled commercial EDTA-K2 tubes and placed on wet ice until centrifugation. After the blood samples were centrifuged at approximately 4° C. and 3, 200 g for 10 min, plasma was collected and transferred to pre-labeled 96-well plates or polypropylene tubes, flash frozen on dry ice, and stored at ≤−60° C. until the analysis by LC-MS/MS.
Serum: approximately 100 μL of blood sample was transferred into a tube without anticoagulant and placed on wet ice for approximately 30 min and centrifuged at 4° C. and 3,000 g for 10 min, and the serum was collected and transferred into pre-labeled PP tubes placed on wet ice. After the completion of all the collections, serum samples were stored at −60° C. until being sent to the animal experimental team to determine urea concentration.
Bronchoalveolar lavage fluid (BALF): pre-cooled tracheo-alveolar lavage fluid was injected into the trachea or predefined bronchi. After a full expansion of the lung tissue, the lavage fluid was slowly drawn out with a syringe 30 s later. The lung was lavaged three times. During the last lavage, the lung tissue was gently squeezed to restore the fluid. To prevent contamination of other lung tissues, the corresponding bronchi were ligated. Both lungs of the mice were perfused with 0.8 mL.
[…] Approximately 200 μL of the BALF samples were transferred into a polypropylene tube, rapidly frozen on dry ice, maintained at ≤−60° C., and sent to the animal experimental team to determine urea concentration. The remaining BALF samples (approximately 600 μL) were rapidly frozen on dry ice and maintained at ≤−60° C. until being submitted for drug concentration analysis by LC-MS/MS.

[5] = system: Acinetobacter baumannii strains; test: Minimum inhibitory concentration (CLSI M07), Example 2, 20 strains; format: cell-based
Method: The minimum inhibitory concentration (MIC) was determined in accordance with the requirements of the Clinical and Laboratory Standards Institute (CLSI) M07 (for aerobic bacteria).
3.1 The compounds were diluted with DMSO up to 100 times of the highest concentration tested.
The steps of manual dilution are as follows (example): firstly, the compound or antibiotic was diluted to 100 times of the maximum final concentration tested, then 60 μL of compound mother liquor was added to the first column of the 96-well plate, and 30 μL of DMSO was added to each well in the second to the 12th column; 30 μL of the liquid was transferred from the first column to the second column. After being pipetted up and down to even, 30 μL was transferred to the third column, and was diluted in sequence at a 2-fold gradient for a total of 10 times; then 30 μL was removed from each well in the 11th column, then a compound solution diluted at 2-fold gradient was obtained and 1 μL was transferred to a 96-well test plate.
Aerobic bacteria: the strains were inoculated on MHA one day in advance and incubated overnight at 37° C. On the day of the assay, 5-6 single colonies were picked and suspended evenly in saline, and the bacterial concentration was adjusted to the turbidity of 0.5 McFarland standard (concentration is about 1×10^8 CFU/mL). The bacterial suspension was diluted at 200-fold with the corresponding liquid culture medium (Table 1), i.e., the bacterial concentration was ~5×10^5 CFU/ml, and then 100 μL of the liquid was transferred to a 96-well round bottom plate (the 96-well plate with compound prepared in 4.2, Echo method) to obtain the test plate. If the compound was manually diluted, then 99 μL of the solution was transferred into a 96-well round bottom plate. The 96-well round bottom plate obtained above was placed into an incubator at 37° C. and 85% humidity to incubate for 20 h.

NC(=O)[C@@H]1CC[C@@H]2CN1C(=O)N2OS(=O)(=O)O [Avibactam, [(2S,5R)-2-carbamoyl-7-oxo-1,6-diazabicyclo [3.2.1]oct-6-yl] bisulfate]
Purity in pH buffer (monomer) ([1]; pH 4.0 buffer): −24.20% | Purity in pH buffer (in mixture) ([1]; pH 4.0 buffer): −23.74% | Purity in pH buffer (monomer) ([1]; pH 4.5 buffer): −2.31% | Purity in pH buffer (in mixture) ([1]; pH 4.5 buffer): −1.42% | Purity in pH buffer (monomer) ([1]; pH 5.0 buffer): −0.71% | Purity in pH buffer (in mixture) ([1]; pH 5.0 buffer): −0.99% | Purity in pH buffer (monomer) ([1]; pH 5.5 buffer): −0.77% | Purity in pH buffer (in mixture) ([1]; pH 5.5 buffer): −0.54% | Purity in pH buffer (monomer) ([1]; pH 6.0 buffer): −1.75% | Purity in pH buffer (in mixture) ([1]; pH 6.0 buffer): −1.76% | Purity in pH buffer (monomer) ([1]; pH 7.3 buffer): −0.81% | Purity in pH buffer (in mixture) ([1]; pH 7.3 buffer): −1.06% | Purity in pH buffer (monomer) ([1]; pH 8.0 buffer): −8.87% | Purity in pH buffer (in mixture) ([1]; pH 8.0 buffer): −8.81% | Protein binding [2]: ~8% | Part of the dosing interval with plasma concentration above 4 μg/mL [3]: 50% | Part of the dosing interval with plasma concentration above 8 μg/mL [3]: 30% | Kp at 0.5 h ([4]; BALF/plasma, intravenous, 25 mg/kg, 0.50 h, read-out: BALF/plasma ratio Mean): 0.0474 | Kp at 3 h ([4]; BALF/plasma, intravenous, 150 mg/kg, 3.00 h, read-out: BALF/plasma ratio Mean): 0.0319 | Kp at 5 h ([4]; BALF/plasma, intravenous, 150 mg/kg, 5.00 h, read-out: BALF/plasma ratio Mean): 0.153 | Kp at 8 h ([4]; BALF/plasma, intravenous, 150 mg/kg, 8.00 h, read-out: BALF/plasma ratio Mean): 0.211 | concentration at 0.5 h ([4]; ELF, intravenous, 0.50 h, group 01 (25 mg/kg per Table 9), read-out: ELF concentration Mean ± SD): 5400 ± 2390 ng/mL | concentration at 3 h ([4]; ELF, intravenous, 3.00 h, 150 mg/kg, read-out: ELF concentration Mean ± SD): 4730 ± 2410 ng/mL | concentration at 5 h ([4]; ELF, intravenous, 5.00 h, 150 mg/kg, read-out: ELF concentration Mean ± SD): 129 ± 75.2 ng/mL | concentration at 8 h ([4]; ELF, intravenous, 8.00 h, 150 mg/kg, read-out: ELF concentration Mean ± SD): 22.2 ng/mL | concentration at 0.5 h ([4]; bronchoalveolar lavage fluid (BALF), intravenous, 0.50 h, group 01 (25 mg/kg per Table 9), read-out: BALF concentration Mean ± SD): 849 ± 210 ng/mL | concentration at 3 h ([4]; bronchoalveolar lavage fluid (BALF), intravenous, 3.00 h, 150 mg/kg, read-out: BALF concentration Mean ± SD): 626 ± 459 ng/mL | concentration at 5 h ([4]; bronchoalveolar lavage fluid (BALF), intravenous, 5.00 h, 150 mg/kg, read-out: BALF concentration Mean ± SD): 19 ± 11.6 ng/mL | concentration at 8 h ([4]; bronchoalveolar lavage fluid (BALF), intravenous, 8.00 h, 150 mg/kg, read-out: BALF concentration Mean ± SD): 5.37 ng/mL | concentration at 0.25 h ([4]; plasma, 0.25 h, group 01 (25 mg/kg per Table 9), intravenous dripping, read-out: Plasma concentration Mean ± SD): 16500 ± 2260 ng/mL | concentration at 0.5 h ([4]; plasma, 0.50 h, group 01 (25 mg/kg per Table 9), intravenous dripping, read-out: Plasma concentration Mean ± SD): 17900 ± 2040 ng/mL | concentration at 1 h ([4]; plasma, 1.00 h, 150 mg/kg intravenous dripping, read-out: Plasma concentration Mean ± SD): 18800 ± 3070 ng/mL | concentration at 3 h ([4]; plasma, 3.00 h, 150 mg/kg intravenous dripping, read-out: Plasma concentration Mean ± SD): 18300 ± 4530 ng/mL | concentration at 4 h ([4]; plasma, 4.00 h, 150 mg/kg intravenous dripping, read-out: Plasma concentration Mean ± SD): 285 ± 226 ng/mL | concentration at 5 h ([4]; plasma, 5.00 h, 150 mg/kg intravenous dripping, read-out: Plasma concentration Mean ± SD): 123 ± 34.8 ng/mL | concentration at 6 h ([4]; plasma, 6.00 h, 150 mg/kg intravenous dripping, read-out: Plasma concentration Mean ± SD): 57.8 ± 3.1 ng/mL | concentration at 8 h ([4]; plasma, 8.00 h, 150 mg/kg intravenous dripping, read-out: Plasma concentration Mean ± SD): 28.5 ± 9.52 ng/mL | MIC of the strain BAA-1795 (component in the combination) ([5]; strain BAA-1795, sulbactam/avibactam 4:1, concentration of the named component): 2 µg/mL | MIC90 of the single component in the combination ([5]; sulbactam sodium:avibactam sodium = 4:1, concentration of the named component): 4 µg/mL | MIC50 of the single component in the combination ([5]; sulbactam sodium:avibactam sodium = 4:1, concentration of the named component, Examples 1 and 2): 2 µg/mL
